Test results reported in US10577361B2, “Dopamine D3 receptor antagonists having a morpholine moiety” (Indivior UK Limited, priority 2015, dated 2020).

Tests used:
[1] = molecular target: human dopamine type 3 receptor (hD3) (Homo sapiens (Human), UniProt P35462); test: [3H]-Spiperone binding assay at hD3 recombinant receptor (CHO-hD3 membranes); conditions: pKi only estimated to be accurate to about ±0.3-0.5
Procedure: [^3H]-Spiperone Binding Assay at hD3 and hD4 recombinant receptors CHO cells transiently transfected with human dopamine type 3 or 4 receptors (CHO-hD3 or CHO-hD4, respectively), were re-suspended in 20 mM HEPES, 2 mM EDTA (pH 7.4), homogenised and centrifuged at 40,000 g (20 min, 4° C.). After re-suspension, homogenization and centrifugation as above, the final pellet was re-suspended in 20 mM HEPES, 100 mM NaCl, 10 mM MgCl2, 1 mM EDTA (pH 7.4) and aliquots were kept at −80° C. [^3H]-Spiperone Binding experiments were performed in 96 deep-well polypropylene plates in 50 mM Tris/HCl, 120 mM NaCl, 5 mM KCl, 5 mM MgCl2 (pH 7.4). Compounds of invention were serially diluted in DMSO at 100 fold final concentrations in the assay (1% DMSO final in the assay). Displacement was performed in the presence of 0.3 nM [^3H]-Spiperone. The reaction was initiated by the addition of membrane suspension (4 μg and 12 μg of protein for CHO-hD3- and CHO-hD4 membranes, respectively) and lasted for 90 or 100 min (for hD3 or hD4 membranes, respectively) at 23° C. in a final volume of 500 μl. Non specific binding (NSB) was determined in the presence of 1 μM Spiperone. The binding reaction was stopped by rapid filtration through GF/B filterplates pre-soaked in 0.5% polyetylenimmine (PEI) using a Packard cell harvester. After washing with ice-cold 0.9% NaCl, the plate was left to dry before the addition of Microscint 20 ([…], PerkinElmer). Radioactivity was counted with a TopCount (PerkinElmer). Data were analysed by non-linear regression analysis using GraphPad Prism 5.0 (GraphPad Software). Saturation binding experiments were performed similar to the competition binding experiments using a radioligand concentrations ranging from 0.015 to 4.0 nM. […] Characterization of the human dopamine D3 receptor expressed in transfected cell lines.

[2] = molecular target: human dopamine receptor type 2, long variant (hD2L) (Homo sapiens (Human), UniProt P14416); test: [3H]-Spiperone binding assay at hD2 recombinant receptor (CHO-Gα16-hD2L membranes)
Procedure: [^3H]-Spiperone Binding Assay at hD2 Recombinant Receptor CHO cells stably expressing human dopamine receptor type 2, long variant (hD2L), coupled to Gα16 protein (CHO-Gα16-hD2L) were re-suspended in 20 mM HEPES, 2 mM EDTA (pH 7.4), homogenised and centrifuged at 40,000 g (20 min, 4° C.). After re-suspension, homogenization and centrifugation as above, the final pellet was re-suspended in 20 mM HEPES, 100 mM NaCl, 10 mM MgCl2, 1 mM EDTA (pH 7.4) and aliquots were kept at −80° C. [^3H]-Spiperone Binding experiments were performed in 96 deep-well polypropylene plates in 50 mM Tris/HCl, 120 mM NaCl, 5 mM KCl, 5 mM MgCl2 (pH 7.4). […] Displacement was performed in the presence of 0.08 nM [^3H]-Spiperone. The reaction was initiated by the addition of membrane suspension (2 μg of protein for CHO-hD2 membranes) and lasted for 120 min at 23° C. in a final volume of 1000 μl. Non specific binding (NSB) was determined in the presence of 0.1 μM Spiperone. The binding reaction was stopped by rapid filtration through GF/B filterplates pre-soaked in 0.5% polyetylenimmine (PEI) using a Packard cell harvester. After washing with ice-cold 0.9% NaCl, the plate was left to dry before the addition of Microscint 20 (50 μl/well, PerkinElmer). Radioactivity was counted with a TopCount (PerkinElmer). […] Saturation binding experiments were performed similar to the competition binding experiments using a radioligand concentrations ranging from 0.011 to 3.0 nM. […] Is Clozapine selective for the dopamine D4 receptor? […] Real-time analysis of dopamine: antagonist interactions at recombinant human D2long receptor upon modulation of its activation state. Brit. J.

Sequence of human dopamine type 3 receptor (hD3) (P35462 whole entry): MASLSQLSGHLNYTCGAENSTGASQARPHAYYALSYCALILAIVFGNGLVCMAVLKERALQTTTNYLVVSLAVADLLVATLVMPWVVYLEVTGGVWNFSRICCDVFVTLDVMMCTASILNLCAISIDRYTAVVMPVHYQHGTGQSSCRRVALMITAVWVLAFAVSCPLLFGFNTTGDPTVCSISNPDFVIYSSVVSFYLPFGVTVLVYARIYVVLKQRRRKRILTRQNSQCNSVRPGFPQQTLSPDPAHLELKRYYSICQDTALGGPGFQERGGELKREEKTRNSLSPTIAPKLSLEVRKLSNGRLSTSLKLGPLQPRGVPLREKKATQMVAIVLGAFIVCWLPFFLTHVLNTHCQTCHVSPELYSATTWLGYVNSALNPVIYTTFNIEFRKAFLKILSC

SMILES | D3 p Ki [1] | D2 p Ki [2]
Cn1c(SCCCN2CCOC(c3ccc(C(F)(F)F)cc3)C2)nnc1-c1nccs1 (stereo not drawn) [Example 26, 4-(3-{[4-methyl-5-(1,3-thiazol-2-yl)-4H-1,2,4-triazol-3-yl]sulfanyl}propyl)-2-[4-(trifluoromethyl)phenyl]morpholine] | 6.55 | 5.14
Cn1c(SCCCN2CCOC(c3ccc(C(F)(F)F)cc3)C2)nnc1-c1cccnc1 (stereo not drawn) [Example 18, 4-(3-{[4-methyl-5-(pyridin-3-yl)-4H-1,2,4-triazol-3-yl]sulfanyl}propyl)-2-[4-(trifluoromethyl)phenyl]morpholine] | 6.77 | 4.83
Cn1c(SCCCN2CCOC(c3ccc(C(F)(F)F)cc3)C2)nnc1-c1ccc(-c2ncco2)cc1 (stereo not drawn) [Example 14, 4-[3-({4-methyl-5-[4-(1,3-oxazol-2-yl)phenyl]-4H-1,2,4-triazol-3-yl}sulfanyl)propyl]-2-[4-(trifluoromethyl)phenyl]morpholine] | 8.31 | 5.83
Cn1cccc1-c1nnc(SCCCN2CCOC(c3ccc(C(F)(F)F)cc3)C2)n1C (stereo not drawn) [Example 24] | 6.9 | 5.18
Cc1ncoc1-c1nnc(SCCCN2CCOC(c3ccc(Br)cc3)C2)n1C (stereo not drawn) [Example 38, 2-(4-bromophenyl)-4-(3-{[4-methyl-5-(4-methyl-1,3-oxazol-5-yl)-4H-1,2,4-triazol-3-yl]sulfanyl}propyl)morpholine] | 6.72 | 
Cn1c(SCCCN2CCOC(c3ccc(C(F)(F)F)cc3)C2)nnc1-c1ccc(-c2ncco2)cc1 (single isomer, unassigned) [Example 15, (2S or 2R)-4-[3-({4-methyl-5-[4-(1,3-oxazol-2-yl)phenyl]-4H-1,2,4-triazol-3-yl}sulfanyl)propyl]-2-[4-(trifluoromethyl)phenyl]morpholine] | 6.36 | 4.81
Cn1c(SCCCN2CCOC(c3ccc(C(F)(F)F)cc3)C2)nnc1-c1ccc(-n2cnnc2)cc1 (stereo not drawn) [Example 21, 4-[3-({4-methyl-5-[4-(4H-1,2,4-triazol-4-yl)phenyl]-4H-1,2,4-triazol-3-yl}sulfanyl)propyl]-2-[4-(trifluoromethyl)phenyl]morpholine] | 6.9 | 5.04
Cn1c(SCCCN2CCOC(c3ccc(C(F)(F)F)cc3)C2)nnc1-c1ccc(C(N)=O)cc1 (single isomer, unassigned) [Example 13, 4-[4-methyl-5-({3-[(2R or 2S)-2-[4-(trifluoromethyl)phenyl]morpholin-4-yl]propyl}sulfanyl)-4H-1,2,4-triazol-3-yl]benzamide] | 7.94 | 4.86
Cn1c(SCCCN2CCOC(c3ccc(C(F)(F)F)cc3)C2)nnc1-c1cnccn1 (stereo not drawn) [Example 19, 4-(3-{[4-methyl-5-(pyrazin-2-yl)-4H-1,2,4-triazol-3-yl]sulfanyl}propyl)-2-[4-(trifluoromethyl)phenyl]morpholine] | 6.76 | 
Cn1c(SCCCN2CCOC(c3ccc(C(F)(F)F)cc3)C2)nnc1-c1ccsc1 (stereo not drawn) [Example 28] | 6.95 | 5.06
Cn1c(SCCCN2CCOC(c3ccc(C(F)(F)F)cc3)C2)nnc1-c1ccc(-c2nnco2)cc1 (stereo not drawn) [Example 29, 4-[3-({4-methyl-5-[4-(1,3,4-oxadiazol-2-yl)phenyl]-4H-1,2,4-triazol-3-yl}sulfanyl)propyl]-2-[4-(trifluoromethyl)phenyl]morpholine] | 7.79 | 4.91
Cn1c(SCCCN2CCOC(c3ccc(C(F)(F)F)cc3F)C2)nnc1-c1ccc(C(N)=O)cc1 (stereo not drawn) [Example 35] | 7.06 | 
Cc1ccc(C2CN(CCCSc3nnc(-c4ocnc4C)n3C)CCO2)cc1 (stereo not drawn) [Example 36, 4-(3-{[4-methyl-5-(4-methyl-1,3-oxazol-5-yl)-4H-1,2,4-triazol-3-yl]sulfanyl}propyl)-2-(4-methylphenyl)morpholine] | 6.17 | 
Cn1c(SCCCN2CCOC(c3ccc(C(F)(F)F)cc3)C2)nnc1-c1ccc(S(N)(=O)=O)cc1 (stereo not drawn) [Example 33, 4-{4-methyl-5-[(3-{2-[4-(trifluoromethyl)phenyl]morpholine-4-yl}propyl)sulfanyl]-4H-1,2,4-triazol-3-yl}benzene-1-sulfonamide] | 6.87 | <4.5
Cn1c(SCCCN2CCOC(c3ccc(C(F)(F)F)cc3)C2)nnc1-c1ccc(C(N)=O)cc1 (stereo not drawn) [Example 11, 4-{4-methyl-5-[(3-{2-[4-(trifluoromethyl)phenyl]-morpholin-4-yl}propyl)sulfanyl]-4H-1,2,4-triazol-3-yl}benzamide] | 7.46 | 4.96
Cn1c(SCCCN2CCOC(c3ccc(C(F)(F)F)cc3)C2)nnc1-c1ccc(C#N)cc1 (stereo not drawn) [Example 31, 4-{4-methyl-5-[(3-{2-[4-(trifluoromethyl)phenyl]morpholin-4-yl}propyl)sulfanyl]-4H-1,2,4-triazol-3-yl}benzonitrile] | 6.97 | 4.95
Cc1nc(-c2ccc(-c3nnc(SCCCN4CCOC(c5ccc(C(F)(F)F)cc5)C4)n3C)cc2)no1 (stereo not drawn) [Example 30, 4-[3-({4-methyl-5-[4-(5-methyl-1,2,4-oxadiazol-3-yl)phenyl]-4H-1,2,4-triazol-3-yl}sulfanyl)propyl]-2-[4-(trifluoromethyl)phenyl]morpholine] | 7.63 | <5
Cn1c(SCCCN2CCOC(c3ccc(C(F)(F)F)cc3)C2)nnc1-c1ccc(C(N)=O)cn1 (stereo not drawn) [Example 22, 6-{4-methyl-5-[(3-{2-[4-(trifluoromethyl)phenyl]morpholin-4-yl}propyl)sulfanyl]-4H-1,2,4-triazol-3-yl}pyridine-3-carboxamide] | 7 | 4.79
Cn1c(SCCCN2CCOC(c3ccc(C(F)(F)F)cc3)C2)nnc1C1CCCCC1 (stereo not drawn) [Example 25, 4-{3-[(5-cyclohexyl-4-methyl-4H-1,2,4-triazol-3-yl)sulfanyl]propyl}-2-[4-(trifluoromethyl)phenyl]morpholine] | 7.36 | 5.05
CC(=O)c1ccc(-c2nnc(SCCCN3CCOC(c4ccc(C(F)(F)F)cc4)C3)n2C)cc1 (stereo not drawn) [Example 32, 1-(4-{4-methyl-5-[(3-{2-[4-(trifluoromethyl)phenyl]morpholine-4-yl}propyl)sulfanyl]-4H-1,2,4-triazol-3-yl}phenyl)ethan-1-one] | 7.18 | 4.65
Cc1ncoc1-c1nnc(SCCCN2CCOC(c3ccc(C(F)(F)F)cc3F)C2)n1C (stereo not drawn) [Example 34] | 6.71 | 4.96
Cn1c(SCCCN2CCOC(c3ccc(C(F)(F)F)cc3)C2)nnc1-c1ccc(C(N)=O)nc1 (stereo not drawn) [Example 20, 5-{4-methyl-5-[(3-{2-[4-(trifluoromethyl)phenyl]morpholin-4-yl}propyl)sulfanyl]-4H-1,2,4-triazol-3-yl}pyridine-2-carboxamide] | 7.45 | 
